Data as given in patent US10800772B2 (Gilead Sciences, Inc., priority 2016, dated 2020).
Like-named read-outs stand apart in the source and are kept apart here.

Experiments:
Assay type in all cases: cell-based, HIV-1
[1] = test system: HIV-IIIb IN T174I BT; assay: Antiviral assay in MT4 cells, HIV-IIIb IN T174I BT virus (from viral breakthrough); settings: Human immunodeficiency virus 1, IIIB, MT4, 120 h, read-out: T174I BT EC50, MT4 cells, HIV-IIIb IN T174I BT (viral breakthrough), 5 days, CellTiter-Glo
Summary of the method: (§1)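 MT4 cells were pre-infected for 3 h at 37 °C with HIV-IIIb (0.004 m.o.i.), then plated at 2000 cells per well with 3-fold serially diluted compound (10 concentrations, quadruplicate). After 5 days at 37 °C, CellTiter-Glo luminescence was read, and EC50 was taken as the concentration giving a 50% decrease in signal.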

[2] = test system: HIV-IIIb IN T174I DE; assay: Antiviral assay in MT4 cells, HIV-IIIb IN T174I DE virus (from dose escalation passaging); settings: Human immunodeficiency virus 1, IIIB, MT4, 120 h, read-out: T174I DE EC50, MT4 cells, HIV-IIIb IN T174I DE (dose escalation), 5 days, CellTiter-Glo
Summary of the method: as §1

[3] = test system: HIV-IIIb (wildtype); assay: Antiviral assay in MT4 cells, HIV-IIIb wildtype; settings: read-out: WT EC50
Summary of the method: as §1

[4] = Human immunodeficiency virus 1, IIIB, MT4, 120 h
[5] = Human immunodeficiency virus 1, 120 h, MT4 cells, HIV-IIIb wildtype, 5 days, CellTiter-Glo

Structure (SMILES) | EC50 [1] | EC50 [2] | EC50 [3, 4] | EC50 [3, 5]
CC(=O)N1CC(N2CCC(c3c4nc(-c5nc6cc(C)c([C@H](OC(C)(C)C)C(=O)O)c(-c7ccc(Cl)cc7)c6s5)ccc4nn3C(F)F)CC2)C1 [Compound 189, (S)-2-(2-(3-(1-(1-acetylazetidin-3-yl)piperidin-4-yl)-2-(difluoromethyl)-2H-pyrazolo [4,3-b]pyridin-5-yl)-7-(4-chloro-phenyl)-5-methylbenzo[d]thiazol-6-yl)-2-(tert-butoxy) acetic acid] | 1020 nM | 1400 nM | 12 nM | 
COCC(=O)N1CCC(c2nn(C)c3ccc(-c4nc5cc(C)c([C@H](OC(C)(C)C)C(=O)O)c(-c6ccc(Cl)cc6)c5s4)cc23)C1 (stereo partly drawn) [Compound 75, (S)-2-(tert-butoxy)-2-(7-(4-chlorophenyl)-2-(3-((R)-1-(2-methoxyacetyl)pyrrolidin-3-yl)-1-methyl-1H-indazol-5-yl)-5-methylbenzo[d]thiazol-6-yl)acetic acid] | 423 nM | 496 nM | 16 nM | 
Cc1cc2nc(-c3ccc4[nH]nc(C5CCN(C6COC6)CC5)c4n3)sc2c(-c2ccc(Cl)cc2)c1[C@H](OC(C)(C)C)C(=O)O [Compound 174, (S)-2-(tert-butoxy)-2-(7-(4-chloro-phenyl)-5-methyl-2-(3-(1-(oxetan-3-yl)piperidin-4-yl)-1H-pyrazolo [4,3-b]pyridin-5-yl)benzo[d]thiazol-6-yl)acetic acid] | 219 nM | 587 nM | 11 nM | 
Cc1cc2nc(-c3ccc4c(c3)c(C3CCN(C(=O)C5COC5)CC3)nn4C)sc2c(-c2ccc(Cl)cc2)c1[C@H](OC(C)(C)C)C(=O)O [Compound 161, (S)-2-(tert-butoxy)-2-(7-(4-chloro-phenyl)-5-methyl-2-(1-methyl-3-(1-(oxetane-3-carbonyl)piperidin-4-yl)-1H-indazol-5-yl)benzo[d]thiazol-6-yl)acetic acid] | 316 nM | 600 nM | 18 nM | 
Cc1cc2nc(-c3ccc4c(c3)c(N3CCC(N5CCC5)CC3)nn4C)sc2c(-c2ccc(Cl)cc2)c1[C@H](OC(C)(C)C)C(=O)O [Compound 136, (S)-2-(2-(3-(4-(azetidin-1-yl)piperidin-1-yl)-1-methyl-1H-indazol-5-yl)-7-(4-chlorophenyl)-5-methylbenzo[d]thiazol-6-yl)-2-(tert-butoxy) acetic acid] | 857 nM | 1700 nM | 14 nM | 
Cc1cc2nc(-c3ccc4c(c3)c(C3CCN(C(=O)C5(C)COC5)CC3)nn4C)sc2c(-c2ccc(Cl)cc2)c1[C@H](OC(C)(C)C)C(=O)O [Compound 160, (S)-2-(tert-butoxy)-2-(7-(4-chloro-phenyl)-5-methyl-2-(1-methyl-3-(1-(3-methyloxetane-3-carbonyl)piperidin-4-yl)-1H-indazol-5-yl)benzo[d]thiazol-6-yl)acetic acid] | 375 nM | 756 nM | 15 nM | 
Cc1cc2nc(-c3ccc4c(c3)c(C3CCN(C5CNC5)CC3)nn4C)sc2c(-c2ccc(Cl)cc2)c1[C@H](OC(C)(C)C)C(=O)O [Compound 29, (S)-2-(2-(3-(1-(azetidin-3-yl)piperidin-4-yl)-1-methyl-1H-indazol-5-yl)-7-(4-chlorophenyl)-5-methylbenzo[d]thiazol-6-yl)-2-(tert-butoxy)acetic acid] | 646 nM | 823 nM |  | 52 nM
COC1CCN(c2nn(C)c3ccc(-c4nc5cc(C)c([C@H](OC(C)(C)C)C(=O)O)c(-c6ccc(Cl)cc6)c5s4)cc23)CC1 [Compound 142, (S)-2-(tert-butoxy)-2-(7-(4-chloro-phenyl)-2-(3-(4-methoxypiperidin-1-yl)-1-methyl-1H-indazol-5-yl)-5-methylbenzo[d]thiazol-6-yl) acetic acid] | 1560 nM | 2330 nM | 12 nM | 
Cc1cc2nc(-c3ccc4c(c3)c(C3CCN(C5COC5)CC3)nn4C)sc2c(-c2ccc(Cl)cc2)c1[C@H](OC1CC1)C(=O)O [Compound 22, (S)-2-(7-(4-chlorophenyl)-5-methyl-2-(1-methyl-3-(1-(oxetan-3-yl)piperidin-4-yl)-1H-indazol-5-yl)benzo[d]thiazol-6-yl)-2-cyclopropoxyacetic Acid] | 48 nM | 108 nM |  | 23 nM
CC(=O)N1CC(N2CCC(c3nn(C(F)F)c4ccc(-c5nc6cc(C)c([C@H](OC(C)(C)C)C(=O)O)c(-c7ccc(Cl)cc7)c6s5)nc34)CC2)C1 [Compound 183, (S)-2-(2-(3-(1-(1-acetylazetidin-3-yl)piperidin-4-yl)-1-(difluoromethyl)-1H-pyrazolo [4,3-b]pyridin-5-yl)-7-(4-chloro-phenyl)-5-methylbenzo[d]thiazol-6-yl)-2-(tert-butoxy) acetic acid] | 29 nM | 69 nM | 2 nM | 
Cc1cc2nc(-c3ccc4c(c3)c(N3CCCN(C)CC3)nn4C)sc2c(-c2ccc(Cl)cc2)c1[C@H](OC(C)(C)C)C(=O)O [Compound 132, (S)-2-(tert-butoxy)-2-(7-(4-chloro-phenyl)-5-methyl-2-(1-methyl-3-(4-methyl-1,4-diazepan-1-yl)-1H-indazol-5-yl)benzo[d]thiazol-6-yl)acetic acid] | 1100 nM | 1680 nM | 25 nM | 
Cc1cc2nc(-c3ccc4c(c3)c(C3CCN(C[C@@H]5CCN5C)CC3)nn4C)sc2c(-c2ccc(Cl)cc2)c1[C@H](OC(C)(C)C)C(=O)O [Compound 149, (S)-2-(tert-butoxy)-2-(7-(4-chloro-phenyl)-5-methyl-2-(1-methyl-3-(1-(((S)-1-methyl-azetidin-2-yl)methyl)piperidin-4-yl)-1H-indazol-5-yl)benzo[d]thiazol-6-yl) acetic acid] | 80 nM | 98 nM | 11 nM | 
Cc1cc2nc(-c3cnc4c(n3)c(C3CCN(C5COC5)CC3)nn4C)sc2c(-c2ccc(Cl)cc2)c1[C@H](OC(C)(C)C)C(=O)O [Compound 118, (S)-2-(tert-butoxy)-2-(7-(4-chlorophenyl)-5-methyl-2-(1-methyl-3-(1-(oxetan-3-yl)piperidin-4-yl)-1H-pyrazolo[3,4-b]pyrazin-5-yl)benzo[d]thiazol-6-yl)acetic acid] | 298 nM | 737 nM | 4 nM | 
CC(=O)N1CC[C@H](N2CCC(c3nn(C)c4ccc(-c5nc6cc(C)c([C@H](OC(C)(C)C)C(=O)O)c(-c7ccc(Cl)cc7)c6s5)cc34)CC2)C1 [Compound 11, (S)-2-(2-(3-(1-((S)-1-acetylpyrrolidin-3-yl)piperidin-4-yl)-1-methyl-1H-indazol-5-yl)-7-(4-chlorophenyl)-5-methylbenzo[d]thiazol-6-yl)-2-(tert-butoxy)acetic Acid] | 85 nM | 166 nM | 8 nM | 
Cc1cc2nc(-c3ccc4c(c3)c(C3CCN(C5(C)COC5)CC3)nn4C)sc2c(-c2ccc(Cl)cc2)c1[C@H](OC(C)(C)C)C(=O)O [Compound 20, (S)-2-(tert-butoxy)-2-(7-(4-chlorophenyl)-5-methyl-2-(1-methyl-3-(1-(3-methyloxetan-3-yl)piperidin-4-yl)-1H-indazol-5-yl)benzo[d]thiazol-6-yl)acetic Acid] | 287 nM | 542 nM | 7 nM | 
CCn1nc(C2CCN(C3CN(C(C)=O)C3)CC2)c2nc(-c3nc4cc(C)c([C@H](OC(C)(C)C)C(=O)O)c(-c5ccc(Cl)cc5)c4s3)ccc21 [Compound 181, (S)-2-(2-(3-(1-(1-acetylazetidin-3-yl)piperidin-4-yl)-1-ethyl-1H-pyrazolo[4,3-b]pyridin-5-yl)-7-(4-chlorophenyl)-5-methylbenzo [d]thiazol-6-yl)-2-(tert-butoxy) acetic acid] | 12 nM | 34 nM | 1 nM | 
COC(=O)N1CC[C@@H](N2CCC(c3nn(C)c4ccc(-c5nc6cc(C)c([C@H](OC(C)(C)C)C(=O)O)c(-c7ccc(Cl)cc7)c6s5)cc34)CC2)C1 [Compound 165, (S)-2-(tert-butoxy)-2-(7-(4-chloro-phenyl)-2-(3-(1-((R)-1-(methoxy-carbonyl)pyrrolidin-3-yl)piperidin-4-yl)-1-methyl-1H-indazol-5-yl)-5-methylbenzo[d]thiazol-6-yl) acetic acid] | 118 nM | 182 nM | 5 nM | 
Cc1cc2nc(-c3ccc4c(c3)c(C3CCN(C5COC5)CC3)nn4C(F)F)sc2c(-c2ccc(Cl)cc2)c1[C@H](OC(C)(C)C)C(=O)O [Compound 39, (S)-2-(tert-butoxy)-2-(7-(4-chlorophenyl)-2-(1-(difluoromethyl)-3-(1-(oxetan-3-yl)piperidin-4-yl)-1H-indazol-5-yl)-5-methylbenzo[d]thiazol-6-yl)acetic acid] | 651 nM | 1150 nM | 13 nM | 
COCCN1CC[C@H](c2nn(C)c3ccc(-c4nc5cc(C)c([C@H](OC(C)(C)C)C(=O)O)c(-c6ccc(Cl)cc6)c5s4)cc23)C1 (single isomer, unassigned) [Compound 68] | 1160 nM | 1600 nM | 5 nM | 
Cc1cc2nc(-c3cnc4c(c3)c(C3CCN(C)CC3)cn4C)sc2c(-c2ccc(Cl)cc2)c1[C@H](OC(C)(C)C)C(=O)O [Compound 106, (S)-2-(tert-butoxy)-2-(7-(4-chlorophenyl)-5-methyl-2-(1-methyl-3-(1-methylpiperidin-4-yl)-1H-pyrrolo[2,3-b]pyridin-5-yl)benzo[d]thiazol-6-yl)acetic acid] | 864 nM | 3080 nM | 29 nM | 
